From ChEMBL document CHEMBL1158844, “Two new isoflavones from Ceiba pentandra and their effect on cyclooxygenase-catalyzed prostaglandin biosynthesis” (J Nat Prod, 1998) come the findings set out here.

In experiment [1] the target is T1, Prostaglandin G/H synthase 2 (Ovis aries, UniProt P79208).
T1 sequence (P79208 whole entry): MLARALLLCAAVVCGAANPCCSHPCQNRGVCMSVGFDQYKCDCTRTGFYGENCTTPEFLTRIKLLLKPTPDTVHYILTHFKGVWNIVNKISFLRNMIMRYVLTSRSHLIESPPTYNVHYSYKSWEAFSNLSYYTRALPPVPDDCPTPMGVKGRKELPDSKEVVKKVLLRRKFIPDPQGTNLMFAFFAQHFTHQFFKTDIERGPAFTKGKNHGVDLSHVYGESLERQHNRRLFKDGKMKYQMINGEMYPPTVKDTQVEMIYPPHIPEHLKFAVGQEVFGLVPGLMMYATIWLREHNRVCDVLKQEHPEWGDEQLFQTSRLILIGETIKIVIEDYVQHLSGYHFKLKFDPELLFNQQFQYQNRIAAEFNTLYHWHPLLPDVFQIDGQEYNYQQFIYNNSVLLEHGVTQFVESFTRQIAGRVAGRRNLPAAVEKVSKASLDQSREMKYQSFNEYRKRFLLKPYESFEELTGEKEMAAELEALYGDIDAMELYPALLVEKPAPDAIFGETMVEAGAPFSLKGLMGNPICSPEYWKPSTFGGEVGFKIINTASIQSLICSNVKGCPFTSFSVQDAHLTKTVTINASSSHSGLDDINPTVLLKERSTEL
Briefly: Inhibition of sheep placental cotyledons COX2-mediated prostaglandin production.

In experiment [2] the target is T2, Prostaglandin G/H synthase 1 (Bos taurus, UniProt O62664).
T2 sequence (O62664 whole entry): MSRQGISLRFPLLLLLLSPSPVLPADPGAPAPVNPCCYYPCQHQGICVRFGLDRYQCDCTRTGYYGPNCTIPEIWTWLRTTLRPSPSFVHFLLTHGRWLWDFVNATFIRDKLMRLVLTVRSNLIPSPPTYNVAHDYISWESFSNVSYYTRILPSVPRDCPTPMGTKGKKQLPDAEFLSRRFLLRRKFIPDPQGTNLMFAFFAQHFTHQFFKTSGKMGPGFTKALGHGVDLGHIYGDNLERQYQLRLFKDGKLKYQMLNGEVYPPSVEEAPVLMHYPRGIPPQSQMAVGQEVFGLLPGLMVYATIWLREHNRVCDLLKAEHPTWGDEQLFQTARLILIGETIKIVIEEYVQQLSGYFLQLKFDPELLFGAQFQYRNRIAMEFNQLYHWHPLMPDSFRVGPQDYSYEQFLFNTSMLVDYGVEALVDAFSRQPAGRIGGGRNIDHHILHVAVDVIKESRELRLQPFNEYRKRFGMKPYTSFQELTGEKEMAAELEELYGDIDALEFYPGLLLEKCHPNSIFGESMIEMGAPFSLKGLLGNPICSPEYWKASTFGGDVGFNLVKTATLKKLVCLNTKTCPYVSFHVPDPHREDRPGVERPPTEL
Put plainly: Inhibition of bovine seminal vesicle microsomal COX1-mediated prostaglandin production. The class given is microsomes.

The structures appear in SMILES notation.

Usually IC50 stands for the concentration needed to halve the response being measured. Higher therefore signals a need for much substance. For the compound `COc1cc(O)c2c(=O)c(-c3cc(O)c(OC)c(OC)c3)coc2c1`, the IC50 in experiment [1] was found to be 900 µM; in experiment [2], 97 µM.

Consider `Oc1cc(O)c2c(c1)O[C@H](c1ccc(O)c(O)c1)[C@@H](O)C2` [CIANIDANOL], for which the IC50 in experiment [2] was 80 µM.

With `COc1cc(O)c2c(=O)c(-c3cc(OC)c(OC)c(O[C@@H]4O[C@H](CO)[C@@H](O)[C@H](O)[C@H]4O)c3)coc2c1`, the IC50 was 1200 µM in experiment [1] and 381 µM in experiment [2].
